Measurements: article PMC4760439, “Glicentin‐related pancreatic polypeptide inhibits glucose‐stimulated insulin secretion from the isolated pancreas of adult male rats” (Physiological Reports, 2015)
“Also recorded” adds a separate entry of the source.

How the values were obtained:
perfused rat liver = experiment: Isolated perfused rat liver: glucose output, lactate output, portal pressure; set-up: species or system Male Sprague‐Dawley rat; conditions: for Lactate output (effect of peptide vs control) / Portal pressure (effect of peptide vs control) / Glucose output, epinephrine‐stimulated (effect of peptide vs control): 2.3 or 230 pmol g^−1 min^−1 (n = 5 and n = 3), epinephrine 100 pmol g^−1 min^−1, 30–60 min; for Glucose output, epinephrine‐stimulated (effect of peptide vs control): 37°C
Protocol: (§1) All studies were performed under approval of the University of Auckland Animal Ethics Committee and were consistent with the ARRIVE guidelines (Kilkenny et al. 2012). Male Sprague‐Dawley rats (220–300 g) were obtained from a breeding colony in the Integrated Physiology Unit, School of Biological Sciences at the University of Auckland. Animals were housed in standard environmental conditions under a 12‐hour light/dark cycle and a temperature of 20 ± 1°C. They were maintained on Teklad TB 2018 (Harlan, UK) rat chow and tap water ad libitum.
Under general anesthesia (isoflurane 2–5%; 2 L min^−1 O2 via nasal cone), nonfasted rats underwent laparotomy between 8:00 and 9:00 AM on the experimental day. The liver was removed and quickly connected to a custom‐made, temperature‐controlled, organ perfusion system, whereby it was perfused (in nonrecirculating mode) in a manner similar to that reported previously (Englisch et al. 2000; Whiting et al. 2013). Livers were perfused at a rate of 2 mL g^−1 min^−1 with perfusion media containing final concentrations (in mmol L^−1): NaCl, 128; NaHCO3, 23.9; KCl, 6.0; CaCl2, 2.4; MgSO4, 1.18; D‐glucose, 5; 3‐(‐N‐morpholino)propane sulfonate, 1.29; with fatty‐acid‐free BSA, 0.5% (w/v) at pH 7.4 gassed with O2:CO2 95:5% (v/v) at 37°C. Each liver was stabilized for 40 min: thereafter, hormone‐containing solutions or vehicle (buffer only) was delivered via a side‐arm infusion. Hormones were also investigated with regard to their ability to attenuate epinephrine‐stimulated hepatic glucose output (Epinephrine, Sigma‐Aldrich, St. Louis, MO). Epinephrine was added 30 min after the addition of hormones was commenced.
(§2) Measurement of organ perfusion parameters
(§3) Glucose and lactate concentrations were measured in both organ preparations using a YSI2300 Stat glucose and lactate analyzer (Yellow Springs, Ohio). Portal pressure was measured in isolated‐perfused liver preparations in mmH2O via a T‐tube located 10 cm upstream from the preparation.
(§4) Maximum pancreatic first‐phase insulin secretion in the presence of hormone infusion was contrasted with corresponding control values by unpaired Welch's t‐tests for preplanned comparisons, to allow for unequal variance between groups. Linear mixed‐effects models were fitted by restricted maximum likelihood (LME‐REML) to data obtained from each indicated phase of isolated perfused–organs studies, using S‐PLUS version 8.2 (TIBCO, Spotfire). Calculated P‐values <0.05 are presented in the article and reflect the likelihood ratio between two models, the effect in question (treatment, time, or treatment:time) against the model without the effect in question. Insulin secreted from isolated islets was expressed as a percentage of insulin content and compared using one‐way ANOVA (GraphPad Prism version 6.0: GraphPad Software Inc., San Diego, CA). Cyclic AMP data have been normalized to the response obtained to forskolin and fitted to obtain concentration–response curves using a three‐parameter logistic equation (GraphPad Prism version 6.0: GraphPad Software Inc., San Diego, CA): pEC50 values were obtained from the concentration–response curves and compared using one‐way ANOVA. All data are presented as mean ± SEM of three to four independent experiments.
Figure 2 Effect of rGRPP and rGRPP‐LP on glucose output, lactate output, and portal pressure in the isolated perfused rat liver. Livers from Sprague‐Dawley rats were isolated and perfused with rGRPP (left panels: 2.3 or 230 pmol g^−1 min^−1, n = 5 and n = 3, respectively), rGRPP‐LP (right panels: 2.3 or 230 pmol g^−1 min^−1, n = 5 and n = 3), or vehicle (all panels: control, n = 5). Livers were perfused with hormones or vehicle from 0 to 60 min with 0–30 min as the basal period.

[1] = test system: isolated perfused rat pancreas; experiment: Isolated perfused rat pancreas: insulin secretion (GSIS), lactate; set-up: species or system Male Sprague‐Dawley rat; conditions: for Insulin secretion at 5 mmol L^−1 glucose (vs control): first 20 min; for Insulin secretion at 5 mmol L^−1 glucose (vs control) / Glucose‐stimulated insulin secretion (GSIS) at 20 mmol L^−1 glucose (vs control): rGRPP and rGRPP‐LP 3 or 30 pmol min^−1, hGLP‐1 7–36 30 pmol min^−1, n = 5/group, insulin by ELISA, 37°C; for Glucose‐stimulated insulin secretion (GSIS) at 20 mmol L^−1 glucose (vs control): 20–40 min; for Glucose‐stimulated insulin secretion (GSIS) at 20 mmol L^−1 glucose (vs control) / First phase of GSIS (vs control) / Second phase of GSIS (vs control): 20 mmol L^−1 glucose; for First phase of GSIS (vs control): t = 22 min; for Second phase of GSIS (vs control): t = 26 min to t = 40
Protocol: as §1
Isolated pancreas perfusion
General aspects of the preparation for the isolated pancreas perfusions were the same as those for the liver perfusion studies (above). Particular aspects of the preparation for the pancreas perfusion studies were as follows. After laparotomy, the pancreas and duodenum were removed en bloc and perfused (in nonrecirculating mode) consistent with our previous report (Buchanan et al. 2001). Each pancreatic preparation was quickly connected to the custom‐made, temperature‐controlled, organ perfusion system and perfused at 3 mL min^−1 with oxygenated perfusion buffer (containing at final concentrations in mmol L^−1): NaCl, 112; NaHCO3, 29.3; KCl, 4.4; CaCl2, 2.4; MgSO4, 1.2; D‐glucose, 5.0; with BSA, 0.5% (w/v), Dextran 4% (w/v) at pH 7.4 gassed with O2:CO2 95:5% (v/v) at 37°C. […] Each pancreas was stabilized for 30 min before hormones or vehicle (buffer only) was delivered via a side‐arm infusion.
as §2, §3, §4
Figure 3 Effects of proglucagon products on insulin secretion in the isolated‐perfused rat pancreas.

[2] = target: T1, human glucagon receptor (hGL‐R) (Homo sapiens, UniProt P47871); experiment: cAMP stimulation in transfected Cos 7 cells, hGL‐R; assay type: cell-based; conditions: Cos 7, 37°C, 10 min, ALPHA‐screen
T1 construct: expressed in transfected cells; host or cells: Cos 7 cells
T1 sequence (P47871 26-477): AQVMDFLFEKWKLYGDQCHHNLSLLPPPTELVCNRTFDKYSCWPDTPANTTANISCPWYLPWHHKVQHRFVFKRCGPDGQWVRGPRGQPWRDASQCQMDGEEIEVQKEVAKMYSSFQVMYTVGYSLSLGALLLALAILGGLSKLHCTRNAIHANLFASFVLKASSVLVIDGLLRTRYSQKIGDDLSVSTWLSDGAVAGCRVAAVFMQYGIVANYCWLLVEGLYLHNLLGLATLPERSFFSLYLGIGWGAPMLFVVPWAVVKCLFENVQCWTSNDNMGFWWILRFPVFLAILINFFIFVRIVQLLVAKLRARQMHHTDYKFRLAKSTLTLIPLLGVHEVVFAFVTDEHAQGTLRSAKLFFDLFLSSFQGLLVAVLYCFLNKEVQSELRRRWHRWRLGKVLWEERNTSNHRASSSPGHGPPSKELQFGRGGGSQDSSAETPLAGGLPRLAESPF
Protocol: (§5) Transfection of Cos 7 cells
(§6) Cos 7 cells were maintained and subcultured as previously described (Bailey and Hay 2006) and plated at a density of 15,000 cells per well into 96‐well plates 1 day prior to transfection. […] Cyclic AMP assays were performed 48 h after transfection (Bailey and Hay 2006). The human GRPP was obtained from Bachem (Bubendorf, Switzerland).
(§7) Cyclic AMP stimulation of transfected Cos 7 cells
(§8) Transfected cells were serum‐deprived in DMEM containing 1 mmol L^−1 IBMX and 0.1% (w/v) bovine serum albumin (BSA) for 30 min. […] Plates were incubated at 37°C for 10 min. […] Media were then aspirated from the wells and reactions terminated by addition of ice‐cold absolute ethanol. Ethanol was then evaporated to dryness and cell extracts re‐suspended in 45 μL cAMP assay buffer: cAMP concentrations were determined using ALPHA‐screen assay kits (Perkin Elmer, Massachusetts) as previously described (Gingell et al. 2010).
as §4, with “Cyclic AMP data have been normalized to the response obtained to forskolin and fitted to obtain concentration–response curves using a three‐parameter logistic equation (GraphPad Prism version 6.0: GraphPad Software Inc., San Diego, CA): pEC50 values were obtained from the concentration–response curves and compared using one‐way ANOVA. All data are presented as mean ± SEM of three to four independent experiments.” left out

[3] = target: T2, human GLP‐1 receptor (hGLP‐1R) (Homo sapiens, UniProt P43220); experiment: cAMP stimulation in transfected Cos 7 cells, hGLP‐1R; assay type: cell-based; conditions: Cos 7, 37°C, 10 min, ALPHA‐screen
T2 construct: expressed in transfected cells; host or cells: Cos 7 cells
T2 sequence (P43220 24-463): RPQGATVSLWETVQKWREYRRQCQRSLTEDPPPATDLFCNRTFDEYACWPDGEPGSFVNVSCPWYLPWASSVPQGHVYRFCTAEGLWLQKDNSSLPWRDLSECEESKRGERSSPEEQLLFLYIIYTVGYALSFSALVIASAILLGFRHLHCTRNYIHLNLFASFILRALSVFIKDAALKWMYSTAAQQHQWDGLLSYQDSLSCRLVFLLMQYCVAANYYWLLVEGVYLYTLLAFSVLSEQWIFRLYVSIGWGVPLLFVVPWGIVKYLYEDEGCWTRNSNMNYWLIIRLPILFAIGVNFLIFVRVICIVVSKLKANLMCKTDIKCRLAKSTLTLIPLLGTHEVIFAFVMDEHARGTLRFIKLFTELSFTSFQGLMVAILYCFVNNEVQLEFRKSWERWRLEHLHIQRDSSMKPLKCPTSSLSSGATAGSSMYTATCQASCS
Protocol: as §5, §6, §7, §8
(§9) Maximum pancreatic first‐phase insulin secretion in the presence of hormone infusion was contrasted with corresponding control values by unpaired Welch's t‐tests for preplanned comparisons, to allow for unequal variance between groups. […] Calculated P‐values <0.05 are presented in the article and reflect the likelihood ratio between two models, the effect in question (treatment, time, or treatment:time) against the model without the effect in question. […]

[4] = target: T1, human glucagon receptor (hGL‐R); experiment: Antagonism of glucagon‐stimulated cAMP production, hGL‐R; assay type: cell-based; conditions: peptide preincubated 5 min
Protocol: as §5, §6, §7, §8, §9

[5] = target: T2, human GLP‐1 receptor (hGLP‐1R); experiment: Antagonism of GLP‐1 7–36‐stimulated cAMP production, hGLP‐1R; assay type: cell-based; conditions: peptide preincubated 5 min
Protocol: as §5, §6, §7, §8, §9

canine pancreas = conditions: cited from earlier work
From the text: However, we know of only one study reporting the effects of GRPP on GSIS. […] The precise experimental conditions such as amount of glucose and experimental model used may have influences on the different outcomes; however, the reason for the opposing actions of GRPP between these ...

[6] = 100 pmol g^−1 min^−1, 30–60 min, all groups

HAPQDTEENARSFPASQTEPLEDPDQINED [rGRPP, rat glicentin‐related pancreatic polypeptide, 30 amino acid Gcg‐derived peptide, synthesized by Fmoc solid‐phase peptide synthesis]
Lactate output (effect of peptide vs control) (perfused rat liver): Neither dose of rGRPP nor rGRPP‐LP modified these parameters compared with control values | Portal pressure (effect of peptide vs control) (perfused rat liver): Neither dose of rGRPP nor rGRPP‐LP modified these parameters compared with control values | Glucose output, epinephrine‐stimulated (effect of peptide vs control) (perfused rat liver): not modified by rGRPP or GRPP‐LP; also recorded: Neither dose of rGRPP nor rGRPP‐LP modified these parameters compared with control values | Insulin secretion at 5 mmol L^−1 glucose (vs control) [1]: No significant difference in insulin secretion | Glucose‐stimulated insulin secretion (GSIS) at 20 mmol L^−1 glucose (vs control) [1]: potent inhibition of glucose‐stimulated insulin secretion (GSIS) from the rat pancreas; also recorded: inhibited GSIS | First phase of GSIS (vs control) [1]: inhibited the initial first phase of GSIS in the isolated rat pancreas | Second phase of GSIS (vs control) [1]: ongoing suppression of insulin secretion throughout the second phase | Stimulation of cAMP production at hGL‐R [2]: neither rGRPP nor rGRPP‐LP stimulated cAMP production at either receptor | Stimulation of cAMP production at hGLP‐1R [3]: neither rGRPP nor rGRPP‐LP stimulated cAMP production at either receptor | Antagonism of glucagon‐stimulated cAMP production [4]: nor did they antagonize glucagon‐ or GLP‐1‐stimulated cAMP‐production at either receptor; also recorded: no shifts in the GLP‐1 7–36 or glucagon concentration–response curves | Antagonism of GLP‐1‐stimulated cAMP production [5]: nor did they antagonize glucagon‐ or GLP‐1‐stimulated cAMP‐production at either receptor; also recorded: no shifts in the GLP‐1 7–36 or glucagon concentration–response curves

human glicentin 1–16: human glicentin 1–16, literature peptide (RSLQDTEEKSRSFSAS; Glicentin; UniProt P01275 21-36, looked up, fragment)
Plasma insulin and glucagon, canine pancreas (canine pancreas; local circulation preparation of the canine pancreas, ref Ohneda and Ohneda 1988): slight increases in plasma insulin and decreases in plasma glucagon

CNC[C@H](O)c1ccc(O)c(O)c1 [epinephrine, reference compound]
Glucose output, effect of epinephrine (perfused rat liver; [6]): evoked an increase in glucose output in all groups | Lactate release, effect of epinephrine (perfused rat liver; [6]): expected elevation of lactate release | Portal pressure, effect of epinephrine (perfused rat liver; [6]): expected elevation of lactate release and portal pressure

porcine GRPP: porcine GRPP, literature peptide (RSLQNTEEKSRSFPAPQTDPLDDPDQMTED; Glicentin-related polypeptide; UniProt P01274 21-50, looked up)
Insulin and glucagon secretion, canine pancreas (canine pancreas; ref Ohneda and Ohneda 1988): insulin was possibly increased and glucagon decreased

HAPQDTEENARSFPASQTEPLEDPNQINE [rGRPP‐LP, rat GRPP‐like peptide]
Lactate output (effect of peptide vs control) (perfused rat liver): Neither dose of rGRPP nor rGRPP‐LP modified these parameters compared with control values | Portal pressure (effect of peptide vs control) (perfused rat liver): Neither dose of rGRPP nor rGRPP‐LP modified these parameters compared with control values | Glucose output, epinephrine‐stimulated (effect of peptide vs control) (perfused rat liver): Neither dose of rGRPP nor rGRPP‐LP modified these parameters compared with control values | Glucose output, epinephrine‐stimulated (effect of peptide vs control) (perfused rat liver; listed as GRPP‐LP): not modified by rGRPP or GRPP‐LP | Insulin secretion at 5 mmol L^−1 glucose (vs control) [1]: No significant difference in insulin secretion | Glucose‐stimulated insulin secretion (GSIS) at 20 mmol L^−1 glucose (vs control) [1]: potent inhibition of glucose‐stimulated insulin secretion (GSIS) from the rat pancreas; also recorded: inhibited GSIS | First phase of GSIS (vs control) [1]: inhibited the initial first phase of GSIS in the isolated rat pancreas | Second phase of GSIS (vs control) [1]: ongoing suppression of insulin secretion throughout the second phase | Stimulation of cAMP production at hGL‐R [2]: neither rGRPP nor rGRPP‐LP stimulated cAMP production at either receptor | Stimulation of cAMP production at hGLP‐1R [3]: neither rGRPP nor rGRPP‐LP stimulated cAMP production at either receptor | Antagonism of glucagon‐stimulated cAMP production [4]: nor did they antagonize glucagon‐ or GLP‐1‐stimulated cAMP‐production at either receptor | Antagonism of GLP‐1‐stimulated cAMP production [5]: nor did they antagonize glucagon‐ or GLP‐1‐stimulated cAMP‐production at either receptor

human glicentin 12–69: encompasses both GRPP and glucagon sequences (SFSASQADPLSDPDQMNEDKRHSQGTFTSDYSKYLDSRRAQDFVQWLMNTKRNRNNIA; Glicentin; UniProt P01275 32-89, looked up, fragment)
GSIS and glucagon secretion, perfused canine pancreas (canine pancreas; ref Yanaihara et al. 1985): enhanced GSIS and inhibited glucagon secretion in the perfused canine pancreas
